From patent US8119614B2, “Substitution derivatives of N6-benzyladenosine, methods of their preparation, their use for preparation of drugs, cosmetic preparations and growth regulators, pharmaceutical preparations, cosmetic preparations and growth regulators containing these compounds” (Ustav Experimentalni Botaniky Akademie Ved Ceske Republiky, priority 2002, dated 2012)
“Also recorded” adds a separate entry of the source. Peptide text beside a SMILES is read from it. * marks the point of attachment. Cbz = O=C(OCc1ccccc1)*; CH2F = FC*

What was measured:
[1] = tested on: HL-60 cells; assay: HL-60 cell proliferation and viability (FDA/PI staining); type: cell-based, human; settings: 50 μM Z-VAD-FMK with 20 μM 2OH3MeOBAPR, 72 h (FIG. 10)
Experimental: Cell culture. A suspension of human promyelocytic HL-60 cells was cultured in RPMI-1640 medium supplemented with a 10% calf foetal serum and antibiotics in 5% CO2 atmosphere at 37° C. Cells were maintained at density from 1×10^5 to 6×10^5 cells per ml. HL-60 cells were obtained from ECACC.
Cell viability assay. Double staining with fluorescein diacetate (FDA) and propidium iodide (PI) for discrimination of dead and living cells was used. Cells were stained in growing medium with PI at a concentration 10 μg/ml 5 min later FDA was added at a concentration 1 μg/ml. The percentage of dead cells (i.e., red stained cells) was evaluated using fluorescence microscopy (Mlejnek and Kolman 1999).

[2] = tested on: Rosa multiflora; assay: In vitro and post vitro multiplication and rooting of rose; type: in vivo
[3] = tested on: Rosa hybrida ‘Pailin’; assay: Early shoot senescence inhibition of tissue cultured roses; type: in vivo; settings: 10 μM in medium
Experimental: Rosa hybrida ‘Pailin’ (a cut rose) was cultured in 350 ml vessels with a screw on polycarbonate lid. Each culture vessel contained 100 ml autoclaved medium (120° C., 20 min). The cultures were maintained at 23±2° C. under a 16 h photoperiod at […] m^−2 s^−1 PAR. The basal medium (MBR) contained Murashige and Skoog (1962) macroelements, microelements and vitamins, 36.7 mg/l NaFeEDTA, 50 mg/l NaFeEDDHA, […], 30 g/l sucrose, 100 mg/l glycine, 50 mg/l calcium pantothenate, 100 mg/l L-glutamine and 7 g/l agar-agar. This medium was supplemented with 10 μM of the tested cytokinin. New cytokinins were filter sterilised and added after autoclaving the medium in the vessels. 6-Benzylaminopurine (BAP) was used as a standard compound; the control medium didn't contain any cytokinin. After a culture period of 6 weeks, scoring senescence symptoms was started.

[4] = tested on: spring wheat (variety Sandra); assay: Field studies: yield analysis of spring wheat crop; type: in vivo; settings: spray of 10^−6 molar solution, Control = 100.0
Experimental: Crops (over the 4-year period) of spring wheat were sown in the experimental fields of Czech Agriculture University (CZU) (region of sugar beet production type) at a seeding rate of 400 germinative grains·m^−2 into ploughed and shoddy soil containing 116.1 mg/kg P, 228.3 mg/kg K, and 211.8 mg/kg Mg (agrochemical analyses were done at Department of Pedology CZU) (interval between ploughing and sowing is usually 3-4 days, longer only in case of adverse weather conditions). Preceding crop was rape. Soil preparation was done by the classical way using skid and harrow and after seeding is rolled.
(§1) Height of plants, leaf area, dry matter, development of vegetation opex—bases of future spike, and number of spikelets were monitored after germination in 14 day intervals, […]. From these primary data, values used in production physiology are derived, as leaf area index LAI, photosynthetic capacity LAD, tillering potential. Experiments with treatment of spring wheat crop (variety Sandra) are carried out on the field (area 10 m^2, four replicates) by spraying 1 litr of 10^−6 molar solution of tested compound (cytokinin) at the transition period from jointing stage to athesis stage (49 DC).
Yield analysis, evaluating spike lenght and seed number per spikelet (Σ Z/K) were carried out for 30 plant per each variant, yield from 1 m^2 and 1000 grain weight (HTS) was determined from 8 replicates, yield per ha was subsequently calculated.

[5] = tested on: glutamate kinase; assay: Field studies: glutamate kinase activity in spring wheat; type: in vivo; parameters: tested at 1 µM (10^-6 M spray solution); settings: 6 days after the application, Control = 100.0
Experimental: as §1
Glutamate kinase activity was determined 6 days after the application. This enzyme was selected because of good corelation of its activity changes and state of transport of endogenous substances (nutrients from roots, assimilates to cariopsis), respiration, energy (adenosintriphosphate) transfer, storage of nutrients, growth and developmental proceses, and also metabolism of proline, which is known from literature to play an important role in adaptation against stress (unsuitable stand, drought, hypersalinity, coldness) and also in regulation of both theoretical and real production (restriction of seed number reduction per spikelet). Enzyme glutamate kinase catalyses to glutamate conversion into γ glutamylphosphate, which is first step of proline biosynthesis from glutamate. Therefore, this enzyme is, as essential precursor of other plant metabolic pathways, marker of stress inhibition. It can be determined spectrofotometrically (Vasáková, 1980). For analysis, acetone powder is prepared from a sample by standard method, subsequently extracted by 0.05M potassium-phosphate buffer pH=7.2 and centrifugated. Glutamate kinase fraction is precipitated using crystalline ammonium sulfate and after dialysis, glutamate kinase activity is determined spectrophotometrically. Proline accumulation increased by stress corresponds as a “feedback” to glutamate kinase inhibition.

[6] = Ex vitro, after four weeks of acclimatising

Row | SMILES | effect of caspase inhibitor on 2OH3MeOBAPR induced apoptosis and cell death [1] | shoot multiplication and rooting (in words) ([2]; 10 μM in medium) | Root number per plant [2, 6] | Total root length per plant (cm) [2, 6] [cm] | Flower number per explant ([2]; In vitro, 10 μM, 8 weeks) | Number of new shoots per explant ([2]; In vitro, 10 μM, 8 weeks) | Root number per explant ([2]; In vitro, 10 μM, 8 weeks) | Total root length per explant (cm) ([2]; In vitro, 10 μM, 8 weeks) | senescence / dying of rose explants (in words) [3] | HTS (%) (1000 grain weight) [4] | Yield(%) [4] [%] | Σ Z/K (%) (seed number per spikelet) [4] | Σ spike/m^2 (%) [4] [%] | GK % (glutamate kinase activity) [5] [%]
1 | COC(=O)C[C@H](NC(=O)[C@H](C)NC(=O)[C@@H](NC(=O)OCc1ccccc1)C(C)C)C(=O)CF [Z-VAD-FMK, reference compound] (Cbz-Val-Ala-Asp(OMe)-CH2F) | suppress morphological and biochemical characteristics of apoptosis, however it does not inhibit cell death itself | – | – | – | – | – | – | – | – | – | – | – | – | –
2 | c1ccc(CNc2ncnc3nc[nH]c23)cc1 [BAP, 6-benzylaminopurine, reference compound] | – | high shoot multiplication rate, but the shoots rooted badly | 0.6 | 1.1 | 0.00 | 3.8 | 0.0 | 0.0 | the relative number of dead plants looks like a sigmoid curve; also recorded: dead Rosa explant | 102.0 | 115.4 | 111.9 | 101.1 | 108.2
3 | OC[C@H]1O[C@@H](n2cnc3c(NCc4ccccc4)ncnc32)[C@H](O)[C@@H]1O [BAPR, 6-benzylaminopurine riboside, reference compound] | – | – | – | – | – | – | – | – | – | 103.8 | 121.9 | 114.3 | 102.7 | 154.1
4 | Oc1cccc(CNc2ncnc3nc[nH]c23)c1 [mT, 6-(3-hydroxybenzylamino)purine] | – | – | – | – | – | – | – | – | the situation improved | – | – | – | – | –
